PubChem BioAssay AID1996
In brackets after ≈: the same amount, converted by molar mass.

Conditions: buffer; pH 7.4; 200.0 µM

SMILES | solubility kinetic
CC1=CC(C)(C)N=C(Nc2nc(C)c3cc(C)cc(C)c3n2)N1 | > 46.4 µg/mL
Cc1ccc(C(=O)NCCNS(=O)(=O)c2ccccc2)cn1 | > 47.9 µg/mL
CC(C)(C)c1ccc(C(=O)NCCCNC(=O)c2ccccn2)cc1 | > 50.9 µg/mL
Cc1ccc(S(=O)(=O)N2CC=C(C(=O)NC3CC3)CC2)cc1 | 40.5 µg/mL (≈ 126 µM)
O=C(CN1c2cccc3cccc(c23)S1(=O)=O)Nc1ccccc1Br | 4.4 µg/mL (≈ 10.5 µM)
CN(C)C(=O)Oc1ccc2c(c1)O/C(=C\c1cccc(Cl)c1)C2=O | < 0.7 µg/mL
COc1ccc(-n2c(C)cc(-c3cn4cccc(C)c4n3)c2C)cc1 | 11.9 µg/mL (≈ 35.9 µM)
Cc1cccc(N2CCc3c2nc2ccc(Br)cc2c3N)c1.Cl | 0.6 µg/mL
CC(C)c1ccc(OCC(=O)Nc2ccncc2)cc1 | 38.8 µg/mL (≈ 144 µM)
O=C(CN1CCCCCC1)Nc1cc([N+](=O)[O-])ccc1Cl | 22.6 µg/mL (≈ 72.5 µM)
Cc1[nH]c2ccc(C(=O)Nc3ccncc3)cc2c1C | 34.7 µg/mL (≈ 131 µM)
O=C(CCNC(=O)c1ccccc1)Nc1nc2ccccc2s1 | 4.9 µg/mL (≈ 15.1 µM)
COc1cccc2c(Nc3ccccc3C)cc(C)nc12.Cl | 40.1 µg/mL
O=C(COC(=O)CN1CCSC1=O)Nc1ccc(F)cc1Cl | > 52 µg/mL
NCCc1c[nH]c2ccc(OCc3ccccc3)cc12 | 7.8 µg/mL (≈ 29.3 µM)
NS(=O)(=O)c1ccc(CCNC(=O)CNC(=O)Cc2ccccc2)cc1 | > 56.3 µg/mL
COc1cccc(C(=O)Nc2ccc3c(C)cc(=O)oc3c2)c1 | < 0.7 µg/mL
O=C(Nc1c[nH]c(=O)[nH]c1=O)c1cccc(F)c1 | 12.2 µg/mL (≈ 49 µM)
Cc1ccc(NC(=O)c2cc(C)nc3ccccc23)c(C)c1 | 27.1 µg/mL (≈ 93.3 µM)
Cc1ccc(-n2c(C)cc(C(=O)OCC(=O)N3CCOCC3)c2C)cc1 | > 53.5 µg/mL
Cc1ccc(Oc2ncccc2N)c2c1CCC2 | 10.1 µg/mL (≈ 42 µM)
CN(CC1COc2ccccc2O1)C(=O)Cn1cc(C(F)(F)F)ccc1=O (stereo not drawn) | > 57.4 µg/mL
O=C(COC(=O)C1COc2ccccc2O1)NC1CCCCC1 (stereo not drawn) | > 47.9 µg/mL
Cc1cc(=O)[nH]c(SCC(=O)NC2CCCCC2)n1 | 32.3 µg/mL (≈ 115 µM)

SMILES | solubility kinetic
CSC1=NCCN1C(=O)c1ccc2ccccc2c1 | 1.9 µg/mL (≈ 7.03 µM)
O=C(O)CC1(CC(=O)NCc2ccc(F)cc2)CCCCC1 | > 46.1 µg/mL
CCC(=O)Nc1ccc(/C=C(\C(C)=O)C(=O)c2ccccc2)cc1 | > 48.2 µg/mL
O=C(COC(=O)Cn1cnc2ccccc21)Nc1ccc(F)c(F)c1 | > 51.8 µg/mL
CC1CCCN(S(=O)(=O)c2cnc[nH]2)C1 (stereo not drawn) | > 34.4 µg/mL
COc1ccc(OC)c(Nc2nc(NCc3ccco3)nc(N)c2[N+](=O)[O-])c1 | < 0.1 µg/mL
CN1CC(=O)N(CC(=O)Nc2ccc(OCc3ccccc3)cc2)C1=O | 45.7 µg/mL (≈ 129 µM)
COc1ccc(C)cc1N(CC(=O)N1CCCCCC1)S(C)(=O)=O | 38.1 µg/mL (≈ 107 µM)
COc1cccc(C(=O)Nc2cc(C)on2)c1OC | 34 µg/mL (≈ 130 µM)
CC(C)C(=O)NC(NC1CCS(=O)(=O)C1)C(Cl)(Cl)Cl (stereo not drawn) | > 52.8 µg/mL
CCOc1ccc(C(=O)C(C)OC(=O)c2cnc(C)cn2)cc1 (stereo not drawn) | > 47.2 µg/mL
Cc1cc(C)nc(N2CCC(C(=O)NCc3ccccc3F)CC2)n1 | 0.3 µg/mL (≈ 0.876 µM)
Cc1cc(C)cc(NC(=O)c2cccc(N3C(=O)C4C5C=CC(C5)C4C3=O)c2)c1 (stereo not drawn) | < 0.4 µg/mL
COc1cccc(C(=O)Nc2ccc(C(=O)NCC3CCCO3)cc2)c1 (stereo not drawn) | 45.2 µg/mL (≈ 128 µM)
Nc1ccc(Cl)c(S(=O)(=O)Nc2cccc(Cl)c2)c1 | 43.4 µg/mL (≈ 137 µM)
CC(=O)c1c(C)[nH]c(C(=O)COC(=O)Cc2ccccc2F)c1C | > 49.7 µg/mL
COc1ccc(C(=O)C(C)OC(=O)CNC(=O)C2CCCCC2)cc1 (stereo not drawn) | > 52.1 µg/mL
Cc1ccc(OCCN2C(=O)C(=O)c3cccc(C)c32)cc1 | < 0.6 µg/mL
CN(C)C(CNC(=O)C1CCCN1C(=O)c1cccs1)c1ccccc1 (stereo not drawn) | > 55.7 µg/mL
Cl.O=S(=O)(NCCN1CCOCC1)c1cccs1 | > 46.9 µg/mL
CN(C)c1ccc(/C=C/c2nc3ccccc3c(=O)n2CCO)cc1 | 40.7 µg/mL (≈ 121 µM)
Cc1csc(=O)n1CC(=O)Nc1ccc(Cl)c(Cl)c1 | 9.7 µg/mL (≈ 30.6 µM)
C=CCNC(=S)N(Cc1ccccc1)Cc1ccc(F)cc1 | 14 µg/mL (≈ 44.5 µM)
Cc1cc(SCc2ccc(F)cc2)nc(=O)[nH]1 | 22.1 µg/mL (≈ 88.3 µM)

SMILES | solubility kinetic
CCOC(=O)Cn1ccc(NC(=O)c2ccc(F)cc2)n1 | > 43.7 µg/mL
Cc1cc(NC(=O)c2ccccc2)ccc1NC(=O)Cc1ccccc1 | 0.8 µg/mL (≈ 2.32 µM)
c1ccc2[nH]cnc2c1 | > 17.7 µg/mL
Cc1ccc(S(=O)(=O)NC(C)C(=O)NCc2ccc(Cl)cc2)cc1 (stereo not drawn) | 6.9 µg/mL (≈ 18.8 µM)
COc1ccc2[nH]c(C(=O)Nc3ccc(C)c(F)c3)cc2c1 | 0.7 µg/mL (≈ 2.35 µM)
N#C/C(=C\C=C\c1ccccc1[N+](=O)[O-])C(=O)NCc1ccccc1 | 3.7 µg/mL (≈ 11.1 µM)
COc1cccc(CN(C)C(=O)CCN=C2NS(=O)(=O)c3ccccc32)c1 | > 58.1 µg/mL
CC(CNC(=O)c1ccc(N)cc1)NC(=O)c1ccc(N)cc1 (stereo not drawn) | 42.8 µg/mL (≈ 137 µM)
Cc1cc(C)nc(NC(=O)Cc2ccc(Br)cc2)n1 | > 48 µg/mL
N#C/C(=C\c1cccnc1)C(=O)Nc1ccccc1[N+](=O)[O-] | 30.2 µg/mL (≈ 103 µM)
C/C(=N\O)c1noc(C)c1C(=O)Nc1nccs1 | 2 µg/mL (≈ 7.51 µM)
COc1ccc(-c2csc(NC(=O)Cc3ccccc3)n2)cc1OC | 0.7 µg/mL (≈ 1.97 µM)
Cc1cccc(C(=O)NCC(=O)N2CCC2)c1 | > 34.8 µg/mL
Cc1cc(=O)[nH]c(SCc2cccc3cccnc23)n1 | 13.4 µg/mL (≈ 47.3 µM)
CN(CCC(=O)c1ccccc1)CCC(=O)c1ccccc1 | 42.3 µg/mL (≈ 143 µM)
O=C(Nc1ccccc1Br)c1cc[n+]([O-])cc1 | > 44 µg/mL
Cc1ccc(S(=O)(=O)N2CCN(c3ccccc3)CC2)cc1 | < 0.3 µg/mL
O=C(CN1CCC(NC(=O)Nc2ccccc2)CC1)Nc1ccccc1F | 17.5 µg/mL (≈ 47.2 µM)
N#Cc1ccc(NC(=O)CN2CCCC2)cc1Cl | > 39.6 µg/mL
Cl.c1cncc(CNCCc2c[nH]c3ccccc23)c1 | 38.5 µg/mL
CCNS(=O)(=O)c1ccc(CCC(=O)N2CCCC2)cc1 | > 46.6 µg/mL
O=C(COC(=O)/C=C/c1ccco1)NC1CCCCC1 | 16.3 µg/mL (≈ 58.8 µM)
CCCCNC(=O)OCCSCCS(=O)(=O)c1ccc(Cl)cc1 | 0.9 µg/mL (≈ 2.37 µM)
Cc1cc(Nc2ccc([N+](=O)[O-])cc2)c2ccccc2n1 | 0.6 µg/mL (≈ 2.15 µM)

SMILES | solubility kinetic
COc1cccc(CN2CCN(c3ncccn3)CC2)c1OC | 35.7 µg/mL (≈ 114 µM)
CC(=O)c1ccc(NC(=O)[C@@]2(CC(=O)O)CC(/C=C/c3ccccc3)=NO2)cc1 | > 58.9 µg/mL
CCOC(=O)C1CCCN(C(=O)COc2ccc(C(=O)c3ccc(F)cc3)cc2)C1 (stereo not drawn) | > 62 µg/mL
N#CNC(=Nc1ccc(Cl)cc1)Oc1ccccc1 | 1.9 µg/mL (≈ 6.99 µM)
CC(Sc1ncnc2sccc12)C(=O)Nc1ccc(S(N)(=O)=O)cc1 (stereo not drawn) | 8.7 µg/mL (≈ 22.1 µM)
Cc1cc(C)nc(SCc2ccc([N+](=O)[O-])cc2)n1 | 6.1 µg/mL (≈ 22.2 µM)
O=C(O)C1CCN(c2ccc([N+](=O)[O-])cc2[N+](=O)[O-])CC1 | > 44.3 µg/mL
c1ccc(N2CCN(Cc3ccc4c(c3)OCO4)CC2)nc1 | 32.1 µg/mL (≈ 108 µM)
O=C(NC1CCCCC1)c1ccc2[nH]c(=O)c(=O)[nH]c2c1 | > 43.1 µg/mL
O=C(Nc1cccnc1)c1cc(-c2ccc(Cl)cc2)on1 | 0.3 µg/mL (≈ 1 µM)
COC(=O)Nc1nncs1 | > 23.9 µg/mL
O=C(Nc1nsc(-c2ccccc2)n1)c1ccc(F)cc1 | 32.2 µg/mL (≈ 108 µM)
CCCCn1c(N2CCCC2)nc2c1c(=O)[nH]c(=O)n2C | > 43.7 µg/mL
Cc1ccc(NC(=O)CNC(=O)c2cccs2)nc1 | > 41.3 µg/mL
CCN(CCO)C(=S)Nc1cc(S(=O)(=O)N(C)C)ccc1C | > 51.8 µg/mL
NS(=O)(=O)c1ccc(NC(=O)/C=C/c2ccco2)cc1 | 36.3 µg/mL (≈ 124 µM)
Cc1ccnc2nc(C(=O)OCC(=O)Nc3ccc4c(c3)OCCO4)nn12 | > 55.4 µg/mL
C=CCNC(=O)COC(=O)c1nc2nccc(C)n2n1 | > 41.3 µg/mL
O=C(CN1N=C(c2ccccc2)CCC1=O)NCc1cccs1 | > 49.1 µg/mL
Cc1nc(NCCc2ccccc2)sc1C(=O)O | 38.7 µg/mL (≈ 148 µM)
COc1ccc(Nc2nc(N)c(C(=O)c3ccc(OC)cc3)s2)cc1 | 1.4 µg/mL (≈ 3.94 µM)
O=C(CSc1nc2c(cnn2-c2ccccc2)c(=O)[nH]1)NCC1CCCO1 (stereo not drawn) | > 57.8 µg/mL
O=S(=O)(Nc1ccc(S(=O)(=O)N2CCCC2)cc1)c1ccc(F)cc1F | > 60.4 µg/mL
CN=C1C([N+](=O)[O-])=CC=C2C1=NC1(CCCCC1)N2O | 10.8 µg/mL (≈ 39.1 µM)

SMILES | solubility kinetic
COc1ccccc1NCCC(=O)O | > 29.3 µg/mL
CN(C)Cc1ccccc1C(O)(c1ccccc1)c1ccccc1 | 1.2 µg/mL (≈ 3.78 µM)
Cc1ccccc1NC(=O)c1cc[n+]([O-])cc1 | > 34.2 µg/mL
O=C(COC(=O)CCC(=O)c1ccc(F)cc1)NC1CCCCC1 | > 50.3 µg/mL
CC1(C)C(=O)N(c2ccccc2)C1c1ccccc1O (stereo not drawn) | > 40.1 µg/mL
Cc1cc(C(=O)NC2Cc3ccccc3C2)c(C)o1 | > 38.3 µg/mL
O=C(NC1CCN(Cc2ccccc2)CC1)c1ccccc1 | > 44.2 µg/mL
O=C(COC(=O)c1ccccc1Br)NC1CCCCCCC1 | 25.1 µg/mL (≈ 68.2 µM)
O=C1CCC(C(=O)Nc2cccc(Br)c2)N1 (stereo not drawn) | > 42.5 µg/mL
O=C1C2C3C=CC(C2C(=O)N1CCO)C1C(=O)N(CCO)C(=O)C31 (stereo not drawn) | > 50.1 µg/mL
O=C(Nc1ccc(Cl)cn1)C1COc2ccccc2O1 (stereo not drawn) | 2 µg/mL (≈ 6.88 µM)
O=C(CNc1ccccc1Cl)c1ccc(Br)cc1 | < 0.7 µg/mL
CC(=O)Nc1cc(C)c2nc(NC(C)=O)sc2c1 | 25.7 µg/mL (≈ 97.6 µM)
CCC(=O)N(CCC(c1ccc(C)cc1)c1ccco1)Cc1ccco1 (stereo not drawn) | 45.6 µg/mL (≈ 130 µM)
CN1CCN(C(=O)Nc2ccccc2)CC1.O=C(O)C(=O)O | > 46.4 µg/mL
CN(C)C(=O)N(CCCN1CCOCC1)Cc1cccc2ccccc12 | > 53.3 µg/mL
COc1ccc(OC)c(C(=O)CN2C(=O)C(=O)N(C3CCCC3)C2=O)c1 | 41.3 µg/mL (≈ 115 µM)
O=Cc1ccc(C(=O)OCC(=O)NC(=O)Nc2ccccc2F)cc1 | 28.9 µg/mL (≈ 83.9 µM)
CC(C)(C)c1ccc(/C=C(\C#N)C(=O)NC2CC2)cc1 | 3.7 µg/mL (≈ 13.8 µM)
O=C(COc1ccccc1F)OCC(=O)c1ccc([N+](=O)[O-])cc1 | 46.8 µg/mL (≈ 140 µM)
COc1cc(OC)cc(-c2nc(-c3cccs3)no2)c1 | < 0.3 µg/mL
CCCc1nc2sc3c(=O)[nH]cnc3c2c2c1CCCC2 | 0.4 µg/mL (≈ 1.34 µM)
